Experimental data as given in patent US12577226B2, “Compounds for treating Huntington's disease” (PTC THERAPEUTICS, INC., priority 2019, dated 2026).

System: Endogenous Huntingtin Protein (capture with MW1 (expanded polyglutamine) or MAB2166 antibody)
Test: Endogenous Huntingtin Protein Assay (ELISA-based Meso Scale Discovery electrochemiluminescence assay)
Type: cell-based
Conditions: MSD electrochemiluminescence platform
Method: Compounds of Formula (I), Formula (II), or Formula (III) were tested using the Meso Scale Discovery (MSD) Assay provided in International Application No. PCT/US2016/066042, filed on Dec. 11, 2016 and claiming priority to U.S. Provisional Application U.S. 62/265,652 filed on Dec. 10, 2015, the entire contents of which are incorporated herein by reference.
The Endogenous Huntingtin Protein assay used in Example 1 was developed using the ELISA-based MSD electrochemiluminescence assay platform.
Meso Scale Discovery (MSD) 96-well or 384-well plates were coated overnight at 4° C. with MW1 (expanded polyglutamine) or MAB2166 monoclonal antibody (for capture) at a concentration of 1 μg/mL in PBS (30 μL per well). Plates were then washed three times with 300 μL wash buffer (0.05% Tween-20 in PBS) and blocked (100 μL blocking buffer; 5% BSA in PBS) for 4-5 hours at room temperature with rotational shaking and then washed three times with wash buffer.
Samples (25 μL) were transferred to the antibody-coated MSD plate and incubated overnight at 4° C. After removal of the lysates, the plate was washed three times with wash buffer, and 25 μL of #5656S (Cell signaling; rabbit monoclonal) secondary antibody (diluted to 0.25 μg/mL in 0.05% Tween-20 in blocking buffer) was added to each well and incubated with shaking for 1 Hour at room temperature. Following incubation with the secondary antibody, the wells were rinsed with wash buffer after which 25 μL of goat anti-rabbit SULFO TAG secondary detection antibody (required aspect of the MSD system) (diluted to 0.25 μg/mL in 0.05% Tween-20 in blocking buffer) was added to each well and incubated with shaking for 1 hour at room temperature. After rinsing three times with wash buffer, 150 μL of read buffer T with surfactant (MSD) were added to each empty well, and the plate was imaged on a SI 6000 imager (MSD) according to manufacturers' instructions provided for 96- or 384-well plates.

Row | IC50 [nM] | Compound
1 | ≤ 100 | CC1(C)C[C@@H](Oc2ccc(-c3ncc(-c4cn[nH]c4F)cc3O)nn2)[C@@H](F)C(C)(C)N1 [Compound 40, 5-(5-fluoro-1H-pyrazol-4-yl)-2-(6-{[(3S,4R)-3-fluoro-2,2,6,6-tetramethylpiperidin-4-yl]oxy}pyridazin-3-yl)pyridin-3-ol]
2 | 500 to 1000 | CC1(C)CC(Oc2ncc(-c3ncc(-c4cn[nH]c4)cc3O)nn2)CC(C)(C)N1 [Compound 141, 5-(1H-pyrazol-4-yl)-2-{3-[(2,2,6,6-tetramethylpiperidin-4-yl)oxy]-1,2,4-triazin-6-yl}pyridin-3-ol]
3 | ≤ 100 | [2H]C([2H])([2H])n1cc(-c2cnc(-c3ccc(OC4CC(C)(C)NC(C)(C)C4)nn3)c(O)c2)cn1 [Compound 3, 5-[1-(^2H3)methyl-1H-pyrazol-4-yl]-2-{6-[(2,2,6,6-tetramethylpiperidin-4-yl)oxy]pyridazin-3-yl}pyridin-3-ol]
4 | ≤ 100 | COc1cc(-c2cnc(-c3ccc(OC4CC(C)(C)NC(C)(C)C4)nn3)c(O)c2)nn2cc(C)nc12 [Compound 81, 5-(8-methoxy-2-methylimidazo[1,2-b]pyridazin-6-yl)-2-{6-[(2,2,6,6-tetramethylpiperidin-4-yl)oxy]pyridazin-3-yl}pyridin-3-ol]
5 | ≤ 100 | CC1(C)CC(Oc2ccc(-c3ncc(-n4nccn4)cc3O)nn2)CC2(CC2)N1 (centres unmarked) [Compound 21, 2-{6-[(5,5-dimethyl-4-azaspiro[2.5]octan-7-yl)oxy]pyridazin-3-yl}-5-(2H-1,2,3-triazol-2-yl)pyridin-3-ol]
6 | 500 to 1000 | Cn1cnc(-c2cnc(-c3ccc(O[C@@H]4CC(C)(C)NC(C)(C)[C@@H]4F)nn3)c(O)c2)cc1=O.Cn1cnc(-c2cnc(-c3ccc(O[C@H]4CC(C)(C)NC(C)(C)[C@H]4F)nn3)c(O)c2)cc1=O (mixture of isomers) [Compound 42, 6-[6-(6-{[(3R,4S)-3-fluoro-2,2,6,6-tetramethylpiperidin-4-yl]oxy}pyridazin-3-yl)-5-hydroxypyridin-3-yl]-3-methylpyrimidin-4(3H)-one and 6-[6-(6-{[(3S,4R)-3-fluoro-2,2,6,6-tetramethylpiperidin-4-yl]oxy}pyridazin-3-yl)-5-hydroxypyridin-3-yl]-3-methylpyrimidin-4(3H)-one]
7 | 100 to 500 | CC(C)[C@H]1CN(c2ncc(-c3ncc(-n4nccn4)cc3O)nn2)CCN1 [Compound 156, 2-{3-[(3S)-3-(propan-2-yl)piperazin-1-yl]-1,2,4-triazin-6-yl}-5-(2H-1,2,3-triazol-2-yl)pyridin-3-ol]
8 | 100 to 500 | Cc1ccc(Nc2cnc(-c3ccc(N4C[C@@H](C)N[C@@H](C)C4)nn3)c(O)c2)cn1 [Compound 125, 2-{6-[(3R,5S)-3,5-dimethylpiperazin-1-yl]pyridazin-3-yl}-5-[(6-methylpyridin-3-yl)amino]pyridin-3-ol]
9 | ≤ 100 | COc1cc(-c2cnc(-c3ccc(N4CC[C@@H](NC(C)(C)C)C4)nn3)c(O)c2)ncn1 [Compound 30, 2-{6-[(3R)-3-(tert-butylamino)pyrrolidin-1-yl]pyridazin-3-yl}-5-(6-methoxypyrimidin-4-yl)pyridin-3-ol]
10 | ≤ 100 | Cc1cn2cc(-c3cnc(-c4cnc(N5CCN(C)CC5)nn4)c(O)c3)cc(F)c2n1 [Compound 151, 5-(8-fluoro-2-methylimidazo[1,2-a]pyridin-6-yl)-2-[3-(4-methylpiperazin-1-yl)-1,2,4-triazin-6-yl]pyridin-3-ol]
11 | ≤ 100 | Cn1ccc(-c2cnc(-c3ccc(OC4CC(C)(C)NC(C)(C)C4)nn3)c(O)c2)n1 [Compound 4, 5-(1-methyl-1H-pyrazol-3-yl)-2-{6-[(2,2,6,6-tetramethylpiperidin-4-yl)oxy]pyridazin-3-yl}pyridin-3-ol]
12 | 100 to 500 | 2-(6-{[(3R,4S)-3-fluoro-2,2,6,6-tetramethylpiperidin-4-yl]oxy}pyridazin-3-yl)-5-(imidazo[1,2-a]pyrazin-6-yl)pyridin-3-ol and 2-(6-{[(3S,4R)-3-fluoro-2,2,6,6-tetramethylpiperidin-4-yl]oxy}pyridazin-3-yl)-5-(imidazo[1,2-a]pyrazin-6-yl)pyridin-3-ol [Compound 66]
13 | ≤ 100 | Oc1cc(-c2cn[nH]c2)cnc1-c1ccc(N2CCNC(C3CC3)C2)nn1 (centres unmarked) [Compound 123, 2-[6-(3-cyclopropylpiperazin-1-yl)pyridazin-3-yl]-5-(1H-pyrazol-4-yl)pyridin-3-ol]
14 | ≤ 100 | 2-(6-{[(3R,4S)-3-fluoro-2,2,6,6-tetramethylpiperidin-4-yl]oxy}pyridazin-3-yl)-5-(1H-pyrazol-4-yl)pyridin-3-ol and 2-(6-{[(3S,4R)-3-fluoro-2,2,6,6-tetramethylpiperidin-4-yl]oxy}pyridazin-3-yl)-5-(1H-pyrazol-4-yl)pyridin-3-ol [Compound 6]
15 | ≤ 100 | [2H]C([2H])([2H])n1cc(-c2cnc(-c3ccc(OC4CC(C)(C)NC5(CC5)C4)nn3)c(O)c2)cn1 (centres unmarked) [Compound 75, 2-{6-[(5,5-dimethyl-4-azaspiro[2.5]octan-7-yl)oxy]pyridazin-3-yl}-5-[1-(^2H3)methyl-1H-pyrazol-4-yl]pyridin-3-ol]
16 | 500 to 1000 | CC1CN(c2ccc(-c3ncc(Nc4cccnc4)cc3O)nn2)CCN1 (centres unmarked) [Compound 117, 2-[6-(3-methylpiperazin-1-yl)pyridazin-3-yl]-5-[(pyridin-3-yl)amino]pyridin-3-ol]
17 | 100 to 500 | Oc1cc(-n2nccn2)cnc1-c1cnc(N2CCN[C@@H](C3CC3)C2)nn1 [Compound 159, 2-{3-[(3S)-3-cyclopropylpiperazin-1-yl]-1,2,4-triazin-6-yl}-5-(2H-1,2,3-triazol-2-yl)pyridin-3-ol]
18 | 500 to 1000 | CC1CN(c2ccc(-c3ncc(NCc4cccc5cccnc45)cc3O)nn2)CCN1 (centres unmarked) [Compound 113, 2-[6-(3-methylpiperazin-1-yl)pyridazin-3-yl]-5-{[(quinolin-8-yl)methyl]amino}pyridin-3-ol]

Row | Compound | IC50 [nM]
19 | C[C@@H]1CN(c2ccc(-c3ncc(-c4cc(C#N)c5nn(C)cc5c4)cc3O)nn2)C[C@H](C)N1 [Compound 78, 5-(6-{6-[(3R,5S)-3,5-dimethylpiperazin-1-yl]pyridazin-3-yl}-5-hydroxypyridin-3-yl)-2-methyl-2H-indazole-7-carbonitrile and 5-(6-{6-[(3S,5R)-3,5-dimethylpiperazin-1-yl]pyridazin-3-yl}-5-hydroxypyridin-3-yl)-2-methyl-2H-indazole-7-carbonitrile] | ≤ 100
20 | CN(c1ccc(-c2ncc(-c3cn[nH]c3)cc2O)nn1)C1CC(C)(C)NC(C)(C)C1 [Compound 2, 2-{6-[methyl(2,2,6,6-tetramethylpiperidin-4-yl)amino]pyridazin-3-yl}-5-(1H-pyrazol-4-yl)pyridin-3-ol] | ≤ 100
21 | CN(c1cnc(-c2ncc(-c3cn[nH]c3)cc2O)nn1)C1CC(C)(C)NC(C)(C)C1 [Compound 162, 2-{6-[methyl(2,2,6,6-tetramethylpiperidin-4-yl)amino]-1,2,4-triazin-3-yl}-5-(1H-pyrazol-4-yl)pyridin-3-ol] | ≤ 100
22 | 2-(6-{[(3R,4S)-3-fluoro-2,2,6,6-tetramethylpiperidin-4-yl]oxy}pyridazin-3-yl)-5-(imidazo[1,2-b]pyridazin-6-yl)pyridin-3-ol and 2-(6-{[(3S,4R)-3-fluoro-2,2,6,6-tetramethylpiperidin-4-yl]oxy}pyridazin-3-yl)-5-(imidazo[1,2-b]pyridazin-6-yl)pyridin-3-ol [Compound 49] | ≤ 100
23 | 2-(6-{[(3R,4S)-3-fluoro-2,2,6,6-tetramethylpiperidin-4-yl]oxy}pyridazin-3-yl)-5-(2-methylimidazo[1,2-b]pyridazin-6-yl)pyridin-3-ol and 2-(6-{[(3S,4R)-3-fluoro-2,2,6,6-tetramethylpiperidin-4-yl]oxy}pyridazin-3-yl)-5-(2-methylimidazo[1,2-b]pyridazin-6-yl)pyridin-3-ol [Compound 48] | ≤ 100
24 | COc1cc(-c2cnc(-c3ccc(N4C[C@@H](C)N[C@@H](C)C4)nn3)c(O)c2)cc2cn(C)nc12 [Compound 87, 2-{6-[(3R,5S)-3,5-dimethylpiperazin-1-yl]pyridazin-3-yl}-5-(7-methoxy-2-methyl-2H-indazol-5-yl)pyridin-3-ol and 2-{6-[(3S,5R)-3,5-dimethylpiperazin-1-yl]pyridazin-3-yl}-5-(7-methoxy-2-methyl-2H-indazol-5-yl)pyridin-3-ol] | ≤ 100
25 | 5-(1H-pyrazol-4-yl)-2-{6-[(3R,5S)-3,4,5-trimethylpiperazin-1-yl]pyridazin-3-yl}pyridin-3-ol and 5-(1H-pyrazol-4-yl)-2-{6-[(3S,5R)-3,4,5-trimethylpiperazin-1-yl]pyridazin-3-yl}pyridin-3-ol [Compound 90] | 100 to 500
26 | C[C@@H]1CN(c2ccc(-c3ncc(-c4ccc5n[nH]cc5c4)cc3O)nn2)C[C@H](C)N1 [Compound 131, 2-{6-[(3R,5S)-3,5-dimethylpiperazin-1-yl]pyridazin-3-yl}-5-(2H-indazol-5-yl)pyridin-3-ol and 2-{6-[(3S,5R)-3,5-dimethylpiperazin-1-yl]pyridazin-3-yl}-5-(2H-indazol-5-yl)pyridin-3-ol] | 500 to 1000
